Results taken from article PMC9611657, “Bruton’s Tyrosine Kinase Inhibitor Zanubrutinib Effectively Modulates Cancer Resistance by Inhibiting Anthracycline Metabolism and Efflux” (Pharmaceutics, 2022).

Experiments:
[1] = target: T1, aldo-keto reductase 1C3 (AKR1C3) (Homo sapiens, UniProt P42330); assay: reduction to daunorubicinol by recombinant enzyme (DAUN […]), UHPLC, Michaelis-Menten kinetics; format: biochemical
T1 construct: human recombinant AKR1C3 from E. coli BL21(DE3), HisTrap purified
T1 sequence (P42330 1-323): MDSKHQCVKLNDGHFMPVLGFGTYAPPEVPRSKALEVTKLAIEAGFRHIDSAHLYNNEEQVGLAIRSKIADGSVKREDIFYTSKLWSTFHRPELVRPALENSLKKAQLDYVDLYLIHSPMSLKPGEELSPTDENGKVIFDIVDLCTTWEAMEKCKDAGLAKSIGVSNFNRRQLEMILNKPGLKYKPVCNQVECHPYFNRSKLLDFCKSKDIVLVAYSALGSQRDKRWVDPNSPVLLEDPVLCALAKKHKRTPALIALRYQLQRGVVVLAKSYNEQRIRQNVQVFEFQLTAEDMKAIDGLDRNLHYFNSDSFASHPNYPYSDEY

[2] = target: T1, aldo-keto reductase 1C3 (AKR1C3); assay: inhibition of daunorubicin reduction by recombinant enzyme, UHPLC of DAUN-OL, Michaelis-Menten/Lineweaver-Burk; format: biochemical

Row | Ki [2] [nM] | Compound | reduction to daunorubicinol by recombinant enzyme (DAUN 200-2000 μM), UHPLC, Mic [1]
1 | – | COc1cccc2c1C(=O)c1c(O)c3c(c(O)c1C2=O)C[C@@](O)(C(C)=O)C[C@@H]3O[C@H]1C[C@H](N)[C@H](O)[C@H](C)O1 [DAUN, Daunorubicin] | AKR1C3 was incubated with the substrate DAUN, with or without ZAN.
2 | 2900 | C=CC(=O)N1CCC([C@@H]2CCNc3c(C(N)=O)c(-c4ccc(Oc5ccccc5)cc4)nn32)CC1 [ZAN, Zanubrutinib] | –
